Measured values published in paper PMC10180076, “Novel Biologically Active N-Substituted Benzimidazole Derived Schiff Bases: Design, Synthesis, and Biological Evaluation” (Molecules, 2023).
Where two headings read alike, the source gives them in different places.

Legend:
[1] = test system: LN-229, glioblastoma; assay: Proliferation assay (MTS, 72 h), LN-229; assay type: cell-based, human
From the text: (§1) Human cancer cells used in this manuscript, namely Capan-1, HCT-116, NCI-H460, LN-229, HL-60, K-562, and Z-138, were acquired from the American Type Culture Collection (ATCC, Manassas, VA, USA), while the DND-41 cell line was purchased from the Deutsche Sammlung von Mikroorganismen und Zellkulturen (DSMZ Leibniz-Institut, Braunschweig, Germany). Culture media were purchased from Gibco Life Technologies, Merelbeke, Belgium, and supplemented with 10% fetal bovine serum (HyClone, Cytiva, Marlborough, MA, USA). Vincristine and docetaxel, which were used as the reference inhibitors, were purchased from Selleckchem (Munich, Germany). Stock solutions were prepared in DMSO.
(§2) Adherent cell lines LN-229, HCT-116, and NCI-H460 and Capan-1 cells were seeded at a density between 500 and 1500 cells per well, in 384-well tissue culture plates (Greiner, Kremsmünster, Austria). After overnight incubation, the cells were treated with seven different concentrations of the test compounds, ranging from 100 to 0.006 µM.
(§3) Suspension cell lines HL-60, K-562, Z-138, and DND-41 were seeded at densities ranging from 2500 to 5500 cells per well in 384-well culture plates containing the test compounds at the same concentration points. The cells were incubated for 72 h with the compounds and were then analyzed using the CellTiter 96® AQueous One Solution Cell Proliferation Assay (MTS) reagent (Promega, Madison, WI, USA) according to the manufacturer’s instructions. […] The compounds were tested in two independent experiments.

[2] = test system: Capan-1, pancreatic adenocarcinoma; assay: Proliferation assay (MTS, 72 h), Capan-1; assay type: cell-based, human
From the text: as §1, §2, §3

[3] = test system: HCT-116, colorectal carcinoma; assay: Proliferation assay (MTS, 72 h), HCT-116; assay type: cell-based, human
From the text: as §1, §2, §3

[4] = test system: NCI-H460, lung carcinoma; assay: Proliferation assay (MTS, 72 h), NCI-H460; assay type: cell-based, human
From the text: as §1, §2, §3

[5] = test system: DND-41, acute lymphoblastic leukemia; assay: Proliferation assay (MTS, 72 h), DND-41; assay type: cell-based, human
From the text: as §1, §2, §3

[6] = test system: HL-60, acute myeloid leukemia; assay: Proliferation assay (MTS, 72 h), HL-60; assay type: cell-based, human
From the text: as §1, §2, §3

[7] = test system: K-562, chronic myeloid leukemia; assay: Proliferation assay (MTS, 72 h), K-562; assay type: cell-based, human
From the text: as §1, §2, §3

[8] = test system: Z-138, non-Hodgkin lymphoma; assay: Proliferation assay (MTS, 72 h), Z-138; assay type: cell-based, human
From the text: as §1, §2, §3

[9] = test system: influenza A/H1N1 (A/Ned/378/05); assay: Antiviral CPE reduction assay, influenza A/H1N1 in MDCK; assay type: cell-based; conditions: Influenza A virus, MDCK cells, 100 CCID50, MTS
[10] = test system: influenza A/H3N2 (A/HK/7/87); assay: Antiviral CPE reduction assay, influenza A/H3N2 in MDCK; assay type: cell-based; conditions: Influenza A virus, MDCK cells, 100 CCID50, MTS
[11] = test system: influenza B (B/Ned/537/05); assay: Antiviral CPE reduction assay, influenza B in MDCK; assay type: cell-based; conditions: Influenza B virus; MDCK cells, 100 CCID50, MTS
[12] = in vitro; conditions: dog

Compound | melting point | IC50 ([1]; Homo sapiens, LN-229) | IC50 ([2]; Homo sapiens, CAPAN-1) | IC50 ([3]; Homo sapiens, HCT-116) | IC50 ([4]; Homo sapiens, NCI-H460) | IC50 ([5]; Homo sapiens, DND41) | IC50 ([6]; Homo sapiens, HL-60) | IC50 ([7]; Homo sapiens, K562) | IC50 ([8]; Homo sapiens, Z-138) | further results
2-amino-1-phenylbenzimidazole [Compound 19] | – | – | – | – | – | – | – | – | – | IC50 [1]: > 100 µM; IC50 [2]: > 100 µM; IC50 [3]: > 100 µM; IC50 [4]: > 100 µM; IC50 [5]: 98.3 µM; IC50 [6]: > 100 µM; IC50 [7]: > 100 µM; IC50 [8]: > 100 µM
2-amino-6-cyano-1-isobutylbenzimidazole [Compound 21] | – | – | – | – | – | – | – | – | – | IC50 [1]: > 100 µM; IC50 [2]: > 100 µM; IC50 [3]: > 100 µM; IC50 [4]: 69.2 µM; IC50 [5]: > 100 µM; IC50 [6]: > 100 µM; IC50 [7]: > 100 µM; IC50 [8]: > 100 µM
CCCCCCn1c(N)nc2ccccc21 [Compound 20, 2-amino-1-hexylbenzimidazole] | 245 to 250 °C | – | – | – | – | – | – | – | – | –
CCCCCCn1c(N)nc2ccc(C#N)cc21 [Compound 24, 2-Amino-6-cyano-1-hexylbenzimidazole] | 215 to 220 °C | – | – | – | – | – | – | – | – | –
CC(C)Cn1c(/N=C/c2ccc(N(C)C)cc2)nc2ccccc21 [Compound 28, (E)-4-(((1-Isobutyl-1H-benzo[d]imidazol-2-yl)imino)methyl)-N,N-dimethylaniline] | 277 to 279 °C | > 100 µM | > 100 µM | 15.2 µM | > 100 µM | > 100 µM | > 100 µM | > 100 µM | > 100 µM | –
CCN(CC)c1ccc(/C=N/c2nc3ccccc3n2CC(C)C)c(O)c1 [Compound 30, (E)-5-(Diethylamino)-2-(((1-isobutyl-1H-benzo[d]imidazol-2-yl)imino)methyl)phenol] | – | > 100 µM | > 100 µM | > 100 µM | > 100 µM | > 100 µM | 70.4 µM | > 100 µM | > 100 µM | –
CN(C)c1ccc(/C=N/c2nc3ccccc3n2C)cc1 [Compound 33, (E)-N,N-Dimethyl-4-(((1-methyl-1H-benzo[d]imidazol-2-yl)imino)methyl)aniline] | 186 to 188 °C | > 100 µM | > 100 µM | > 100 µM | > 100 µM | > 100 µM | > 100 µM | > 100 µM | > 100 µM | –
CCN(CC)c1ccc(/C=N/c2nc3ccccc3n2C)c(O)c1 [Compound 35, (E)-5-(Diethylamino)-2-(((1-methyl-1H-benzo[d]imidazol-2-yl)imino)methyl)phenol] | – | > 100 µM | > 100 µM | > 100 µM | > 100 µM | > 100 µM | > 100 µM | > 100 µM | > 100 µM | –
CN(C)c1ccc(/C=N/c2nc3ccc(C#N)cc3n2-c2ccccc2)cc1 [Compound 39, (E)-2-((4-(Dimethylamino)benzylidene)amino)-1-phenyl-1H-benzo[d]imidazole-6-carbonitrile] | 247 to 251 °C | > 100 µM | > 100 µM | > 100 µM | > 100 µM | > 100 µM | > 100 µM | > 100 µM | > 100 µM | –
CCCCCCn1c(/N=C/c2ccc(N(C)C)cc2)nc2ccc(C#N)cc21 [Compound 43, (E)-2-((4-(Dimethylamino)benzylidene)amino)-1-hexyl-1H-benzo[d]imidazole-6-carbonitrile] | 165 to 170 °C | > 100 µM | > 100 µM | > 100 µM | 91.6 µM | > 100 µM | 33.5 µM | > 100 µM | > 100 µM | –
CCCCCCn1c(/N=C/c2ccc(N(CC)CC)cc2O)nc2ccccc21 [Compound 44, (E)-5-(Diethylamino)-2-(((1-hexyl-1H-benzo[d]imidazol-2-yl)imino)methyl)phenol] | 201 to 204 °C | > 100 µM | > 100 µM | > 100 µM | > 100 µM | > 100 µM | 83.9 µM | > 100 µM | > 100 µM | –
CCCCCCn1c(/N=C/c2ccc(N(CC)CC)cc2O)nc2ccc(C#N)cc21 [Compound 45, (E)-2-((4-(Diethylamino)-2-hydroxybenzylidene)amino)-1-hexyl-1H-benzo[d]imidazole-6-carbonitrile] | – | > 100 µM | > 100 µM | > 100 µM | > 100 µM | > 100 µM | > 100 µM | > 100 µM | > 100 µM | –
COc1cc([C@@H]2c3cc4c(cc3[C@@H](O[C@@H]3O[C@@H]5CO[C@@H](C)O[C@H]5[C@H](O)[C@H]3O)[C@H]3COC(=O)[C@H]23)OCO4)cc(OC)c1O [ETP, etoposide, reference compound] | – | 2.4 µM | 0.43 µM | 1.45 µM | 3.65 µM | 2.8 µM | 0.42 µM | 1.77 µM | 0.85 µM | –
COC(=O)Nc1nc2ccc(C(=O)c3cccs3)cc2[nH]1 [NZO, nocodazole, reference compound] | – | 0.29 µM | 0.1 µM | 0.13 µM | 0.25 µM | 0.47 µM | 0.1 µM | 0.07 µM | 0.31 µM | –
CC(N)C12CC3CC(CC(C3)C1)C2 (stereo not drawn) [Rimantadine, rimantadine, reference compound] | – | – | – | – | – | – | – | – | – | EC50 [9]: 5 µM; EC50 [10]: 0.05 µM; EC50 [11]: > 100 µM; CC50 [12]: > 100 µM
CC(=O)N[C@H]1[C@H]([C@H](O)[C@H](O)CO)OC(C(=O)O)=C[C@@H]1N=C(N)N [Zanamivir, zanamivir, reference compound] | – | – | – | – | – | – | – | – | – | EC50 [9]: 0.1 µM; EC50 [10]: 16.8 µM; EC50 [11]: 0.05 µM; CC50 [12]: > 100 µM
